ChEMBL document CHEMBL1201862, “PubChem BioAssay data set” (2004)
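Compound exposure: 48 hours, 5 concentrations, 96-well plates. GI50 = concentration required for 50% inhibition of growth.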 Calls of active or inactive are those of the source. No stated cut-off is given here; in the data, active = GI50 up to about 1.1 µM and inactive = higher.

Columns and labels:
Experiment in all cases: inhibition of tumour cell growth, NCI panel, 48 h
A498 = tested on: A498
A549 = tested on: A549
CAKI-1 = tested on: CAKI-1
HCT-116 = tested on: HCT-116
HCT-15 = tested on: HCT-15
HT-29 = tested on: HT-29
IGROV-1 = tested on: IGROV-1
K562 = tested on: K562
KM12 = tested on: KM12
LOX IMVI = tested on: LOX IMVI
MDA-MB-231 = tested on: MDA-MB-231
NCI-H23 = tested on: NCI-H23
OVCAR-4 = tested on: OVCAR-4
OVCAR-8 = tested on: OVCAR-8
SF-295 = tested on: SF-295
SK-MEL-28 = tested on: SK-MEL-28
SNB-75 = tested on: SNB-75
U-251 = tested on: U-251
UACC-62 = tested on: UACC-62

For `Nc1nc(N)c(CCCCc2ccccc2)c(N)n1`, the GI50 (A498) was > 100 µM (inactive), the GI50 (A549) was > 100 µM (inactive) and the GI50 (CAKI-1) was > 100 µM (inactive). For the same compound, the GI50 (HCT-116) was > 100 µM (inactive), the GI50 (HCT-15) was over 100 µM and the GI50 (HT-29) was > 100 µM (inactive). The GI50 (IGROV-1) was > 100 µM (inactive), the GI50 (K562) was > 100 µM (inactive) and the GI50 (KM12) was > 100 µM (inactive). The GI50 (LOX IMVI) was > 100 µM (inactive), the GI50 (MDA-MB-231) was > 100 µM (inactive) and the GI50 (NCI-H23) was > 100 µM (inactive). For the same compound, the GI50 (OVCAR-4) was > 100 µM (inactive), the GI50 (OVCAR-8) was > 100 µM (inactive) and the GI50 (SF-295) was > 100 µM (inactive). For the same compound, the GI50 (SK-MEL-28) was > 100 µM (inactive), the GI50 (SNB-75) was 60.7 µM (inactive) and the GI50 (U-251) was > 100 µM (inactive). The GI50 (UACC-62) was > 100 µM (inactive).
With `CC1=NN(c2nc(N)nc(/C(C#N)=C\c3ccc(-c4ccc([N+](=O)[O-])cc4)o3)n2)C(C)(C)C1` the GI50 (A498) was > 100 µM (inactive), the GI50 (A549) was > 100 µM (inactive) and the GI50 (CAKI-1) was > 100 µM (inactive). For the same compound, the GI50 (HCT-116) was > 100 µM (inactive), the GI50 (HCT-15) was over 100 µM and the GI50 (HT-29) was > 100 µM (inactive). The GI50 (IGROV-1) was > 100 µM (inactive), the GI50 (K562) was > 100 µM (inactive) and the GI50 (KM12) was > 100 µM (inactive). For the same compound, the GI50 (LOX IMVI) was > 100 µM (inactive), the GI50 (MDA-MB-231) was 27.5 µM (inactive) and the GI50 (NCI-H23) was > 100 µM (inactive). The GI50 (OVCAR-4) was > 100 µM (inactive), the GI50 (OVCAR-8) was > 100 µM (inactive) and the GI50 (SF-295) was > 100 µM (inactive). For the same compound, the GI50 (SK-MEL-28) was > 100 µM (inactive), the GI50 (SNB-75) was 14.2 µM (inactive) and the GI50 (U-251) was 39.5 µM (inactive). For the same compound, the GI50 (UACC-62) was > 100 µM (inactive).
With `COc1cc2ncnc(Nc3cccc(Br)c3)c2cc1OC` the GI50 (A498) was 3.12 µM (inactive), the GI50 (A549) was 7.6 µM (inactive) and the GI50 (CAKI-1) was 1.37 µM (inactive). For the same compound, the GI50 (HCT-116) was 14.4 µM (inactive), the GI50 (HCT-15) was 6.56 µM and the GI50 (HT-29) was 3.83 µM (inactive). For the same compound, the GI50 (IGROV-1) was 2.02 µM (inactive), the GI50 (K562) was 15.9 µM (inactive) and the GI50 (KM12) was 2.7 µM (inactive). For the same compound, the GI50 (LOX IMVI) was 3.1 µM (inactive), the GI50 (MDA-MB-231) was 5.61 µM (inactive) and the GI50 (NCI-H23) was 12.5 µM (inactive). For the same compound, the GI50 (OVCAR-4) was 4.07 µM (inactive), the GI50 (OVCAR-8) was 3.72 µM (inactive) and the GI50 (SF-295) was 3.17 µM (inactive). For the same compound, the GI50 (SK-MEL-28) was 4.52 µM (inactive), the GI50 (SNB-75) was 3.05 µM (inactive) and the GI50 (U-251) was 7.06 µM (inactive). The GI50 (UACC-62) was 3.85 µM (inactive).
With `CC(=N\N)/C(C)=N/N=C(C)/C(C)=N/N=C(C)/C(C)=N/N=C(C)/C(C)=N/N` the GI50 (A498) was > 100 µM (inactive), the GI50 (A549) was > 100 µM (inactive) and the GI50 (CAKI-1) was > 100 µM (inactive). For the same compound, the GI50 (HCT-116) was > 100 µM (inactive), the GI50 (HCT-15) was over 100 µM and the GI50 (HT-29) was > 100 µM (inactive). For the same compound, the GI50 (IGROV-1) was > 100 µM (inactive), the GI50 (K562) was 37.8 µM (inactive) and the GI50 (KM12) was > 100 µM (inactive). For the same compound, the GI50 (LOX IMVI) was > 100 µM (inactive), the GI50 (MDA-MB-231) was > 100 µM (inactive) and the GI50 (NCI-H23) was 66.8 µM (inactive). For the same compound, the GI50 (OVCAR-4) was > 100 µM (inactive), the GI50 (OVCAR-8) was > 100 µM (inactive) and the GI50 (SF-295) was > 100 µM (inactive). For the same compound, the GI50 (SK-MEL-28) was > 100 µM (inactive), the GI50 (SNB-75) was > 100 µM (inactive) and the GI50 (U-251) was > 100 µM (inactive).
In the case of `CC(CO)CCC(O)C(C)(O)C1CCC2(O)C3=CC(=O)C4CC(O)C(O)CC4(C)C3CCC12C` (stereo not given), the GI50 (A498) is reported as > 100 µM (inactive), the GI50 (A549) is reported as > 100 µM (inactive) and the GI50 (CAKI-1) is reported as > 100 µM (inactive). The GI50 (HCT-116) was > 100 µM (inactive), the GI50 (HCT-15) was over 100 µM and the GI50 (HT-29) was > 100 µM (inactive). The GI50 (K562) was > 100 µM (inactive), the GI50 (KM12) was > 100 µM (inactive) and the GI50 (LOX IMVI) was > 100 µM (inactive). The GI50 (MDA-MB-231) was > 100 µM (inactive), the GI50 (NCI-H23) was > 100 µM (inactive) and the GI50 (OVCAR-4) was > 100 µM (inactive). For the same compound, the GI50 (OVCAR-8) was > 100 µM (inactive), the GI50 (SF-295) was > 100 µM (inactive) and the GI50 (SK-MEL-28) was > 100 µM (inactive). The GI50 (SNB-75) was 84.3 µM (inactive), the GI50 (U-251) was > 100 µM (inactive) and the GI50 (UACC-62) was > 100 µM (inactive).
With `O=c1onc2n1-c1cc(Cl)ccc1C(=S)N1CSCC21` (stereo not given) the GI50 (A498) was > 100 µM (inactive), the GI50 (A549) was > 100 µM (inactive) and the GI50 (CAKI-1) was > 100 µM (inactive). The GI50 (HCT-116) was > 100 µM (inactive), the GI50 (HCT-15) was over 100 µM and the GI50 (HT-29) was > 100 µM (inactive). For the same compound, the GI50 (IGROV-1) was > 100 µM (inactive), the GI50 (K562) was 26.7 µM (inactive) and the GI50 (KM12) was 89.7 µM (inactive). For the same compound, the GI50 (LOX IMVI) was > 100 µM (inactive), the GI50 (MDA-MB-231) was > 100 µM (inactive) and the GI50 (OVCAR-4) was > 100 µM (inactive). The GI50 (OVCAR-8) was > 100 µM (inactive), the GI50 (SF-295) was > 100 µM (inactive) and the GI50 (SK-MEL-28) was > 100 µM (inactive). For the same compound, the GI50 (SNB-75) was 31.3 µM (inactive), the GI50 (U-251) was > 100 µM (inactive) and the GI50 (UACC-62) was > 100 µM (inactive).
`CC#CC(O)(C(=O)OC1CC2CCC(C1)N2C)C1CCCC1` (stereo not given) was tested, and the GI50 (A498) was > 100 µM (inactive), the GI50 (A549) was > 100 µM (inactive) and the GI50 (CAKI-1) was > 100 µM (inactive). The GI50 (HCT-116) was > 100 µM (inactive), the GI50 (HCT-15) was over 100 µM and the GI50 (HT-29) was > 100 µM (inactive). For the same compound, the GI50 (IGROV-1) was > 100 µM (inactive), the GI50 (K562) was > 100 µM (inactive) and the GI50 (KM12) was > 100 µM (inactive). The GI50 (LOX IMVI) was > 100 µM (inactive), the GI50 (MDA-MB-231) was > 100 µM (inactive) and the GI50 (NCI-H23) was > 100 µM (inactive). The GI50 (OVCAR-4) was > 100 µM (inactive), the GI50 (OVCAR-8) was > 100 µM (inactive) and the GI50 (SF-295) was > 100 µM (inactive). For the same compound, the GI50 (SK-MEL-28) was > 100 µM (inactive), the GI50 (SNB-75) was > 100 µM (inactive) and the GI50 (U-251) was > 100 µM (inactive). For the same compound, the GI50 (UACC-62) was > 100 µM (inactive).
